For assay [1], the system named is Calf thymus DNA. As to the kind of experiment: Ratio of compound concentration to polynucleotide phosphate concentration for binding affinity to calf thymus DNA. The class given is nucleic-acid assay. Particulars: Bos taurus.
Assay [2] is described as follows: Binding affinity to polyA-polyU dsRNA (unknown origin) assessed as change in melting temperature at 0.1 ratio of compound to RNA by spectrophotometric analysis. The class given is nucleic-acid assay.
Assay [3] relates to Calf thymus DNA. The assay can be described thus: Binding affinity to calf thymus DNA by UV-vis spectrophotometric method. The class given is nucleic-acid assay. The settings on record: Bos taurus.
The test system of assay [4] is Poly(dA-dU)oligonucleotide. As to the kind of experiment: Binding affinity to polyA-polyU dsRNA (unknown origin) assessed as conformational change by circular dichroism analysis. The assay is classed as nucleic-acid assay. A general note: CD spectra are sensitive to the conformation of chiral molecules.
For assay [5], the system named is Calf thymus DNA. The assay can be described thus: Binding affinity to calf thymus DNA assessed as conformational change by circular dichroism analysis. The class given is nucleic-acid assay. The settings on record: Bos taurus.
Assay [6] has as its system Calf thymus DNA. The assay can be described thus: Binding affinity to calf thymus DNA assessed as change in melting temperature at compound to calf thymus DNA polynucleotide ratio of 0.3 by spectrophotometric analysis. The assay is classed as nucleic-acid assay. The settings on record: Bos taurus.
Assay [7] relates to Calf thymus DNA. The assay can be described thus: Binding affinity to calf thymus DNA assessed as change in melting temperature at compound to calf thymus DNA polynucleotide ratio of 0.5 by spectrophotometric analysis. Particulars: Bos taurus. The class given is nucleic-acid assay.
A further assay deals with Trypanosoma brucei. The assay can be described thus: Antitrypanosomal activity against Trypanosoma brucei 221 incubated for 48 hrs by resazurin based fluorescence assay. The class given is functional, organism-based. Particulars: Trypanosoma brucei, 221, 48 h. On the technique in general: The colour change of resazurin is a common sign of viable cells or microbes.
Assay [8] concerns Calf thymus DNA. As to the kind of experiment: Binding affinity to calf thymus DNA assessed as change in melting temperature at compound to calf thymus DNA polynucleotide ratio of 0.1 by spectrophotometric analysis. Particulars: Bos taurus. The class given is nucleic-acid assay.
Assay [9] deals with Poly(dA-dU)oligonucleotide. As to the kind of experiment: (§1) Binding affinity to polyA-polyU dsRNA (unknown origin) assessed as binding constant by UV-vis spectrophotometric method. The assay is classed as nucleic-acid assay.
In assay [10] the test system is Poly(dA-dU)oligonucleotide. As to the kind of experiment: Binding affinity to polyA-polyU dsRNA (unknown origin) assessed as change in melting temperature at 0.3 ratio of compound to RNA by spectrophotometric analysis. The class given is nucleic-acid assay.
The nature of assay [11]: Ratio of compound concentration to polynucleotide phosphate concentration for binding affinity to polyA-polyU dsRNA (unknown origin). The class given is nucleic-acid assay.
For assay [12], the system named is Calf thymus DNA. As to the kind of experiment: Binding affinity to calf thymus DNA assessed as hypochromic effect by UV-vis spectrophotometric method relative to control. The class given is nucleic-acid assay. The arrangement: concentration or dose not given beside the values. The settings on record: Bos taurus.
Assay [13] can be described thus: Binding affinity to polyA-polyU dsRNA (unknown origin) assessed as hypochromic effect by UV-vis spectrophotometric method relative to control. The class given is nucleic-acid assay. On the set-up: concentration or dose not given beside the values.
The next assay deals with L6. As to the kind of experiment: Cytotoxicity against rat L6 cells incubated for 6 days by resazurin based fluorescence assay. Particulars: L6, 144 h. The class given is cell-based.
In assay [14] the test system is Poly(dA-dU)oligonucleotide. As to the kind of experiment: Binding affinity to polyA-polyU dsRNA (unknown origin) assessed as change in melting temperature at 0.5 ratio of compound to RNA by spectrophotometric analysis. The class given is nucleic-acid assay.
The nature of assay [15]: as §1. The assay is classed as nucleic-acid assay.

The source made the active and inactive calls. The rule behind the calls is not given here. Bounds are passed on as bounds.

For `Cl.Cl.c1cc2[nH]c(-c3ccc(Cn4cc(COCc5cn(Cc6ccc(-c7nc8cc(C9=NCCN9)ccc8[nH]7)o6)nn5)nn4)o3)nc2cc1C1=NCCN1`, the Ratio in the assay on Calf thymus DNA [1] worked out at 0.89; in [11] it was 0.85. In addition, the ΔTm (commonly the change in melting temperature against a reference sample) in [2] was found to be 3.5 °C; in the assay with Calf thymus DNA [6], 12.7 °C; with Calf thymus DNA [7] it was 12.5 °C; in the assay on Calf thymus DNA [8], 12.4 °C; in assay [10] it was 4 °C. Also, the log Ks is 6.23 in the assay on Calf thymus DNA [3] and 7.17 in [9]. Besides, the outcome (in assay [4]; in the assay with Calf thymus DNA [5]) was Active. For the same compound, the IC50 (usually the midpoint of a concentration-inhibition curve) turned out to be 3.8 µM in the assay on Trypanosoma brucei and 122 µM in the assay on L6. In addition, it took 6 µM to reach the 90% level with Trypanosoma brucei (IC90). Moreover, the Activity is 28% with Calf thymus DNA [12] and 22% in assay [13].
As for `Cl.Cl.N=C(N)c1ccc2[nH]c(-c3ccc(Cn4cc(COc5ccc(OCc6cn(Cc7ccc(-c8nc9cc(C(=N)N)ccc9[nH]8)o7)nn6)cc5)nn4)o3)nc2c1`, the ΔTm in [2] stood at 0 °C; in assay [14], 0 °C; in the assay on Calf thymus DNA [6] it was 10.7 °C; with Calf thymus DNA [7], 12.3 °C; in the assay with Calf thymus DNA [8], 9.5 °C; in assay [10], 0 °C. Also, the outcome (in the assay with Calf thymus DNA [3]; in assay [4]; with Calf thymus DNA [5]; in assay [15]) was Active. The IC50 in the assay on Trypanosoma brucei stood at 1.3 µM; in the assay with L6, 39.6 µM. Moreover, the IC90 (commonly the concentration needed for an effect of 90%) in the assay on Trypanosoma brucei came out at 5.6 µM. Further, the Activity in the assay with Calf thymus DNA [12] amounted to 9%; in assay [13] it was 7%.
As for `N=C(N)c1ccc2[nH]c(-c3ccc(Cn4cc(COc5ccc(-c6ccc(OCc7cn(Cc8ccc(-c9nc%10cc(C(=N)N)ccc%10[nH]9)o8)nn7)cc6)cc5)nn4)o3)nc2c1`, the outcome (in assay [4]; with Calf thymus DNA [5]) was Active. This compound also came in with an IC50 with Trypanosoma brucei of more than 10 µM. The ΔTm in [10] amounted to 0.9 °C. For the same compound, the Activity was 8% in the assay with Calf thymus DNA [12] and less than 5% in assay [13].
Take `CC(C)NC(=N)c1ccc2[nH]c(-c3ccc(Cn4cc(COc5ccc(OCc6cn(Cc7ccc(-c8nc9cc(C(=N)NC(C)C)ccc9[nH]8)o7)nn6)cc5)nn4)o3)nc2c1.Cl.Cl`: the ΔTm is 0 °C in assay [2]; 0 °C in [14]; 11 °C with Calf thymus DNA [6]; 12.2 °C in the assay on Calf thymus DNA [7]; 8 °C in the assay with Calf thymus DNA [8]; 0 °C in [10]. The outcome (with Calf thymus DNA [3]; in assay [4]; in the assay with Calf thymus DNA [5]; in [15]) was Active. The IC50 was 1.5 µM in the assay on Trypanosoma brucei and 121 µM in the assay with L6. The compound further displayed an IC90 in the assay on Trypanosoma brucei of 2.8 µM. Further, the Activity was determined as 23% in the assay with Calf thymus DNA [12] and 11% in [13].
Consider `Fc1ccc2[nH]c(-c3ccc(Cn4cc(COc5ccc(-c6ccc(OCc7cn(Cc8ccc(-c9nc%10cc(F)ccc%10[nH]9)o8)nn7)cc6)cc5)nn4)o3)nc2c1`, for which the Ratio in the assay with Calf thymus DNA [1] amounted to 0.21. Besides, in the assay with Calf thymus DNA [3], the log Ks is 4 to 5. Moreover, in the assay on Calf thymus DNA [5], the outcome was inactive. The ΔTm (in the assay with Calf thymus DNA [6]; in assay [10]) was 0 °C throughout. Further, in the assay with Trypanosoma brucei, the IC50 is more than 15 µM. For the same compound, the result in assay [15] was Active. The Activity in the assay on Calf thymus DNA [12] turned out to be 16%; in [13], 23%.
As for `Cl.Cl.N=C(N)c1ccc2[nH]c(-c3ccc(Cn4cc(COCc5cn(Cc6ccc(-c7nc8cc(C(=N)N)ccc8[nH]7)o6)nn5)nn4)o3)nc2c1`, the Ratio with Calf thymus DNA [1] was 0.47; in [11], 0.43. Moreover, the ΔTm in assay [2] amounted to 2.2 °C; in assay [14] it was 3.3 °C; with Calf thymus DNA [6], 10.4 °C; with Calf thymus DNA [7] it was 12.5 °C; with Calf thymus DNA [8], 9.2 °C; in assay [10], 3.5 °C. In addition, the log Ks in the assay with Calf thymus DNA [3] worked out at 5.93; in assay [9] it was 6.65. For the same compound, in the assay on Calf thymus DNA [5], the outcome was Active. The IC50 came to 3.3 µM with Trypanosoma brucei and 88.6 µM in the assay on L6. Further, the IC90 in the assay with Trypanosoma brucei was 4.7 µM. Also, the values for the Activity (in the assay on Calf thymus DNA [12]; in assay [13]) were 37% and 24%, respectively.
As for `c1cc(-c2ccc(OCc3cn(Cc4ccc(-c5nc6cc(C7=NCCN7)ccc6[nH]5)o4)nn3)cc2)ccc1OCc1cn(Cc2ccc(-c3nc4cc(C5=NCCN5)ccc4[nH]3)o2)nn1`, the result (in [4]; with Calf thymus DNA [5]) was Active. The ΔTm in the assay with Calf thymus DNA [6] was found to be 2.6 °C; in assay [10], 0 °C. In the assay with Trypanosoma brucei, this compound had an IC50 of more than 10 µM. In addition, the Activity is 9% with Calf thymus DNA [12] and 8% in assay [13].
In the case of `Cl.Cl.c1cc2[nH]c(-c3ccc(Cn4cc(CCCc5cn(Cc6ccc(-c7nc8cc(C9=NCCN9)ccc8[nH]7)o6)nn5)nn4)o3)nc2cc1C1=NCCN1`, the Ratio with Calf thymus DNA [1] was 0.05; in [11], 0.42. Moreover, the ΔTm worked out at 1.6 °C in [2]; 2.7 °C in assay [14]; 13.8 °C in the assay on Calf thymus DNA [6]; 19.1 °C in the assay on Calf thymus DNA [7]; 13.5 °C in the assay on Calf thymus DNA [8]; 1.8 °C in assay [10]. The log Ks came out at 7.62 in the assay with Calf thymus DNA [3] and 6.83 in assay [9]. Further, the outcome (in [4]; in the assay on Calf thymus DNA [5]) was Active. The figures for the 50% inhibitory concentration (IC50) in the assay on Trypanosoma brucei and in the assay with L6 were 3.9 µM and 216 µM, respectively. Further, the 90% effect level with Trypanosoma brucei (IC90) was put at 5.4 µM. The Activity was found to be 17% with Calf thymus DNA [12] and 32% in assay [13].
Take `CC(C)NC(=N)c1ccc2[nH]c(-c3ccc(Cn4cc(COc5ccc(-c6ccc(OCc7cn(Cc8ccc(-c9nc%10cc(C(=N)NC(C)C)ccc%10[nH]9)o8)nn7)cc6)cc5)nn4)o3)nc2c1`: the outcome (in [4]; in the assay on Calf thymus DNA [5]) was Active. The ΔTm in the assay on Calf thymus DNA [6] came to 2.1 °C; in assay [10] it was 0 °C. In the assay with Trypanosoma brucei, this compound yielded an IC50 of more than 10 µM. The Activity with Calf thymus DNA [12] was 8%; in assay [13] it was less than 5%.
Consider `Cl.Cl.N=C(N)c1ccc2[nH]c(-c3ccc(Cn4cc(CCCc5cn(Cc6ccc(-c7nc8cc(C(=N)N)ccc8[nH]7)o6)nn5)nn4)o3)nc2c1`, for which the Ratio turned out to be 0.05 in the assay on Calf thymus DNA [1] and 0.3 in assay [11]. The ΔTm amounted to 1.5 °C in assay [2]; 9.3 °C in assay [14]; 13 °C in the assay with Calf thymus DNA [6]; 13.8 °C in the assay with Calf thymus DNA [7]; 13.6 °C in the assay on Calf thymus DNA [8]; 0.6 °C in [10]. In addition, the log Ks worked out at 6.61 with Calf thymus DNA [3] and 5.7 in [9]. Moreover, in the assay with Calf thymus DNA [5], the result was Active. Further, the figures for the IC50 in the assay on Trypanosoma brucei and in the assay with L6 were 3.6 µM and 198 µM, respectively. In addition, in the assay with Trypanosoma brucei, the 90% effect concentration (IC90) was 5.5 µM. The Activity with Calf thymus DNA [12] stood at 13%; in assay [13] it was 46%.
Take `Cl.Cl.c1cc(OCc2cn(Cc3ccc(-c4nc5cc(C6=NCCN6)ccc5[nH]4)o3)nn2)ccc1OCc1cn(Cc2ccc(-c3nc4cc(C5=NCCN5)ccc4[nH]3)o2)nn1`: the ΔTm in assay [2] was 2.7 °C; in assay [14] it was 0 °C; with Calf thymus DNA [6], 8.9 °C; with Calf thymus DNA [7] it was 0 °C; with Calf thymus DNA [8], 8.2 °C; in [10] it was 2.2 °C. Also, the result (in the assay with Calf thymus DNA [3]; in assay [4]; in the assay on Calf thymus DNA [5]; in assay [15]) was Active. The IC50 with Trypanosoma brucei was determined as 0.75 µM; in the assay on L6, 60.7 µM. In the assay on Trypanosoma brucei, this compound registered an IC90 of 1.5 µM. In addition, the Activity stood at 6% with Calf thymus DNA [12] and 11% in [13].

The record behind these values is ChEMBL document CHEMBL4346704, “Novel symmetric bis-benzimidazoles: Synthesis, DNA/RNA binding and antitrypanosomal activity” (Eur J Med Chem, 2019).
